Literature values in patent US10954430B2, “Low-toxicity, low-flammability, environmentally-safe, friction reducer fluid for hydraulic fracturing” (priority 2012, dated 2021).
In brackets after ≈: the same amount, converted by molar mass. Like-named read-outs stand apart in the source and are kept apart here.

Assays:
[1] = system: Pimephales promelas (fathead minnow)
[2] = system: daphnia magna (water flea)
most sensitive species = conditions: eco-toxicity
animal = conditions: in vivo

CC(O)COc1ccccc1 (stereo not drawn) [Dowanol PPH, propylene glycol phenyl ether]
LD50 (rat; in vivo): > 2,000 mg/kg | LC50 ([1]; Pimephales promelas): 280 mg/L (≈ 1840 µM) | LC50 ([2]; Daphnia magna): 370 mg/L (≈ 2430 µM) | LC50 for most sensitive species (most sensitive species): > 100 mg/L | animal toxicity (animal): does not have significant animal toxicity

CC1COC(=O)O1 (stereo not drawn) [Propylene carbonate, propylene carbonate]
LD50 for oral toxicity (rat; oral): > 5 g/kg

OCCCO [propanediol]
LD50 (rat; oral): over 15,000 mg/kg | aquatic toxicity profile ([1]; Pimephales promelas (fathead minnow)): > 9,270 mg/L | aquatic toxicity profile ([2]; daphnia magna (water flea)): > 7.417 mg/L
